Experimental data taken from patent US8563553B2, “Compounds and compositions as protein kinase inhibitors” (Novartis AG, priority 2009, dated 2013).

What follows are compounds tested against b-Raf(V600E) (Homo sapiens (Human), UniProt P15056, V600E) (assay: Raf/Mek Amplified Luminescence Proximity Homogeneous Assay (Alpha Screen)). Conditions: b-Raf(V600E) approximately 4 pM; biotinylated Mek, kinase dead approximately 10 nM; ATP 10 μM; pre-incubation 60 minutes; reaction 3 hours at room temperature; read-out: mut-B-RAF IC50.
Type: biochemical
Description: Raf/Mek Amplified Luminescence Proximity Homogeneous Assay
Assay buffer: 50 mM Tris, pH 7.5, 15 mM MgCl2, 0.01% Bovine Serum Albumin (BSA), 1 mM dithiothreitol (DTT) Stop buffer: 60 mM ethylenediaminetetraacetic acid (EDTA), 0.01% Tween® 20 Bead buffer: 50 mM Tris, pH 7.5, 0.01% Tween® 20 […]
biotinylated Mek, kinase dead
Alpha Screen detection kit (available from PerkinElmer™, #6760617R)
Anti phospho-MEK1/2 (available from Cell Signaling Technology, Inc. #9121) 384 well assay plates (White Greiner® plates, #781207) […]
biotinylated Mek, Kinase dead approximately 10 nM
Pre-incubation time with compounds 60 minutes at room temperature
Reaction time 1 or 3 hours at room temperature
Raf and biotinylated Mek, kinase dead, were combined at 2× final concentrations in assay buffer (50 mM Tris, pH 7.5, 15 mM MgCl2, 0.01% BSA and 1 mM DTT) and dispensed 10 μl per well in assay plates (Greiner white 384 well assay plates #781207) containing 0.5 μl of 40× of a raf kinase inhibitor test compound diluted in 100% DMSO. The plate was incubated for 60 minutes at room temperature.
The Raf kinase activity reaction was started by the addition of 10 μL per well of 2×ATP diluted in assay buffer. […] Phosphorylated product was measured using a rabbit anti-p-MEK (Cell Signaling, #9121) antibody and the Alpha Screen IgG (ProteinA) detection Kit (PerkinElmer #6760617R), by the addition of 30 μL to the well of a mixture of the antibody (1:2000 dilution) and detection beads (1:2000 dilution of both beads) in bead buffer (50 mM Tris, pH 7.5, 0.01% Tween20). The additions were carried out under dark conditions to protect the detection beads from light. A lid was placed on top of the plate and incubated for 1 hour at room temperature, then the luminescence was read on a PerkinElmer Envision instrument. The concentration of each compound for 50% inhibition (IC50) was calculated by non-linear regression using XL Fit data analysis software.

Chain of b-Raf(V600E) (P15056 whole entry V600E): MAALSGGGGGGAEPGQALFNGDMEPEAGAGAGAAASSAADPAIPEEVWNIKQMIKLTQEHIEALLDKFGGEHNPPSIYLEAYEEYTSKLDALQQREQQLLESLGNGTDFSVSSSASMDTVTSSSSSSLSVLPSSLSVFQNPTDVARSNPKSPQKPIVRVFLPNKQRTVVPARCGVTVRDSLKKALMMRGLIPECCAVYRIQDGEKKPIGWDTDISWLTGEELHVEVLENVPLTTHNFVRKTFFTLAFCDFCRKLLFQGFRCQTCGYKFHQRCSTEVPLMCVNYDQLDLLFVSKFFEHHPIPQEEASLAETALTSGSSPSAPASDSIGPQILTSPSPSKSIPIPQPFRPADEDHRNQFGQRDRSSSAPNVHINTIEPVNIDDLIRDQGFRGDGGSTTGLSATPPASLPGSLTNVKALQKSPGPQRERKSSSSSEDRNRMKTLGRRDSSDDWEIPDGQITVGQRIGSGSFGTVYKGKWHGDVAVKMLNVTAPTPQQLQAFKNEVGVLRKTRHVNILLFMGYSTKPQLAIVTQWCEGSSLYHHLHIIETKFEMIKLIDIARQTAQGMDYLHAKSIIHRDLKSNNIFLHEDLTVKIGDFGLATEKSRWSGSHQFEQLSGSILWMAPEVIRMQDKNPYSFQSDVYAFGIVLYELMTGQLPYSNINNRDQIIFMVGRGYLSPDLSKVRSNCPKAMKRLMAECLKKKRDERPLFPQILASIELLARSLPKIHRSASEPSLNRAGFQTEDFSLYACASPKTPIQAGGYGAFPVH

Which IC50 does the source give for `COC(=O)N[C@@H](C)CNc1nccc(-c2[nH]c(-c3ccc(C(F)(F)F)cc3)nc2-c2cc(F)cc(NS(C)(=O)=O)c2Cl)n1` [Example 1BZ, (S)-Methyl 1-(4-(4-(2-chloro-5-fluoro-3-(methylsulfonamido)phenyl)-2-(4-(trifluoromethyl)phenyl)-1H-imidazol-5-yl)pyrimidin-2-ylamino)propan-2-ylcarbamate] here?
Its IC50 is 2 nM.

How did the IC50 turn out when `COC(=O)N[C@@H](C)CNc1nccc(-c2[nH]c(C(C)(C)C)nc2-c2cc(Cl)cc(NS(=O)(=O)C3CC3)c2)n1` [Example 1F, (S)-methyl 1-(4-(2-tert-butyl-4-(3-chloro-5-(cyclopropanesulfonamido)phenyl)-1H-imidazol-5-yl)pyrimidin-2-ylamino)propan-2-ylcarbamate] was run?
The IC50 was 0.1 nM.

For `COC(=O)N[C@@H](C)CNc1nccc(-c2[nH]c(C(C)(C)C)nc2-c2cccc(NS(=O)(=O)C3CC3)c2F)n1` [Example 2B, (S)-Methyl 1-(4-(2-tert-butyl-4-(3-(cyclopropanesulfonamido)-2-fluorophenyl)-1H-imidazol-5-yl)pyrimidin-2-ylamino)propan-2-ylcarbamate], which IC50 is on record?
The IC50 was 0.27 nM.

With `COC(=O)N[C@@H](C)CNc1nccc(-c2[nH]c(C(C)(C)C)nc2-c2cc(Cl)cc(NS(C)(=O)=O)c2F)n1` [Example 1AI, (S)-Methyl 1-(4-(2-tert-butyl-4-(5-chloro-2-fluoro-3-(methylsulfonamido)phenyl)-1H-imidazol-5-yl)pyrimidin-2-ylamino)propan-2-ylcarbamate] as the compound, how does the IC50 read?
The IC50 was 0.28 nM.

Which IC50 does the source give for `COC(=O)N[C@@H](C)CNc1nccc(-c2[nH]c(C3CC3)nc2-c2cc(Cl)cc(NS(C)(=O)=O)c2Cl)n1` [Example 1X, (S)-Methyl 1-(4-(2-cyclopropyl-4-(2,5-dichloro-3-(methylsulfonamido)phenyl)-1H-imidazol-5-yl)pyrimidin-2-ylamino)propan-2-ylcarbamate] here?
Its IC50 is 0.18 nM.

With `CCCS(=O)(=O)Nc1cccc(-c2nc(C3CC3)[nH]c2-c2ccnc(NC[C@H](C)NC(=O)OC)n2)c1` [Example 4J, (S)-Methyl 1-(4-(2-cyclopropyl-4-(3-(propylsulfonamido)phenyl)-1H-imidazol-5-yl)pyrimidin-2-ylamino)propan-2-ylcarbamate] as the compound, how does the IC50 read?
Its IC50 is 1 nM.

With `COC(=O)N[C@@H](C)CNc1nccc(-c2[nH]c(C3CC3)nc2-c2cc(C)cc(NS(C)(=O)=O)c2Cl)n1` [Example 1AB, (S)-Methyl 1-(4-(4-(2-chloro-5-methyl-3-(methylsulfonamido)phenyl)-2-cyclopropyl-1H-imidazol-5-yl)pyrimidin-2-ylamino)propan-2-ylcarbamate] as the compound, how does the IC50 read?
Its IC50 is 1.1 nM.

Which IC50 does the source give for `COC(=O)N[C@@H](C)CNc1nccc(-c2nc(C3CC3)[nH]c2-c2cc(Cl)cc(NS(=O)(=O)c3cccc(F)c3)c2F)n1` [Example 1AX, (S)-Methyl 1-(4-(5-(5-chloro-2-fluoro-3-(3-fluorophenylsulfonamido)phenyl)-2-cyclopropyl-1H-imidazol-4-yl)pyrimidin-2-ylamino)propan-2-ylcarbamate] here?
Its IC50 is 0.33 nM.

`COC(=O)N[C@@H](C)CNc1nccc(-c2[nH]c(C(C)(C)C)nc2-c2cc(Cl)cc(NS(=O)(=O)CC(C)C)c2)n1` [Example 1G, (S)-methyl 1-(4-(2-tert-butyl-4-(3-chloro-5-(2-methylpropylsulfonamido)phenyl)-1H-imidazol-5-yl)pyrimidin-2-ylamino)propan-2-ylcarbamate] was tested. Which IC50 did it give?
Its IC50 is 0.3 nM.

`COC(=O)N[C@@H](C)CNc1nccc(-c2nc(C3(C)CC3)[nH]c2-c2cccc(NS(C)(=O)=O)c2Cl)n1` [Example 1AO, (S)-Methyl 1-(4-(5-(2-chloro-3-(methylsulfonamido)phenyl)-2-(1-methylcyclopropyl)-1H-imidazol-4-yl)pyrimidin-2-ylamino)propan-2-ylcarbamate] was tested. Which IC50 did it give?
The IC50 was 1 nM.

With `COC(=O)N[C@@H](C)CNc1nccc(-c2[nH]c(C(C)(C)C)nc2-c2cc(C)cc(NS(=O)(=O)C(C)C)c2)n1` [Example 1Q, (S)-Methyl 1-(4-(2-tert-butyl-4-(3-methyl-5-(1-methylethylsulfonamido)phenyl)-1H-imidazol-5-yl)pyrimidin-2-ylamino)propan-2-ylcarbamate] as the compound, how does the IC50 read?
Its IC50 is 3.12 nM.

How did the IC50 turn out when `CCCS(=O)(=O)Nc1cc(F)cc(-c2nc(C3CC3)[nH]c2-c2ccnc(NCC)n2)c1Cl` [Example 1AS, N-(2-Chloro-3-(2-cyclopropyl-5-(2-(ethylamino)pyrimidin-4-yl)-1H-imidazol-4-yl)-5-fluorophenyl)propane-1-sulfonamide] was run?
Its IC50 is 1 nM.

For `CC(C)Nc1nccc(-c2[nH]c(C3CC3)nc2-c2cc(F)cc(NS(C)(=O)=O)c2Cl)n1` [Example 1AT, N-(2-Chloro-3-(2-cyclopropyl-5-(2-(isopropylamino)pyrimidin-4-yl)-1H-imidazol-4-yl)-5-fluorophenyl)methanesulfonamide], which IC50 is on record?
Its IC50 is 25 nM.

With `CCCNc1nccc(-c2[nH]c(C3CC3)nc2-c2cc(F)cc(NS(=O)(=O)CCC)c2Cl)n1` [Example 1AN, N-(2-Chloro-3-(2-cyclopropyl-5-(2-(propylamino)pyrimidin-4-yl)-1H-imidazol-4-yl)-5-fluorophenyl)propane-1-sulfonamide] as the compound, how does the IC50 read?
The IC50 was 0.39 nM.

For `COC(=O)N[C@@H](C)CNc1nccc(-c2[nH]c(C(C)(C)C)nc2-c2cccc(NS(=O)(=O)C(C)C)c2F)n1` [Example 2D], which IC50 is on record?
The IC50 was 0.78 nM.

How did the IC50 turn out when `CCCS(=O)(=O)Nc1cc(Cl)cc(-c2nc(C(C)(C)C)[nH]c2-c2ccnc(N)n2)c1F` [Example 1BH, N-(3-(5-(2-Aminopyrimidin-4-yl)-2-tert-butyl-1H-imidazol-4-yl)-5-chloro-2-fluorophenyl)propane-1-sulfonamide] was run?
Its IC50 is 0.08 nM.

With `COC(=O)N[C@@H](C)CNc1nccc(-c2[nH]c(C3CC3)nc2-c2cccc(NS(C)(=O)=O)c2Cl)n1` [Example 1T, (S)-Methyl 1-(4-(4-(2-chloro-3-(methylsulfonamido)phenyl)-2-cyclopropyl-1H-imidazol-5-yl)pyrimidin-2-ylamino)propan-2-ylcarbamate] as the compound, how does the IC50 read?
The IC50 was 0.47 nM.

For `CCCS(=O)(=O)Nc1cc(F)cc(-c2nc(C(C)(C)C)[nH]c2-c2ccnc(NC[C@H](C)NC(=O)OC)n2)c1Cl` [Example 1AH], which IC50 is on record?
The IC50 was 1 nM.

`CCC(C)S(=O)(=O)Nc1cc(Cl)cc(-c2nc(C(C)(C)C)[nH]c2-c2ccnc(NC[C@H](C)NC(=O)OC)n2)c1` (stereo partly drawn) [Example 1H, Methyl (2S)-1-(4-(2-tert-butyl-4-(3-chloro-5-(1-methylpropylsulfonamido)phenyl)-1H-imidazol-5-yl)pyrimidin-2-ylamino)propan-2-ylcarbamate] was tested. Which IC50 did it give?
The IC50 was 0.5 nM.

Which IC50 does the source give for `COC(=O)N[C@@H](C)CNc1nccc(-c2nc(C3(C)CC3)[nH]c2-c2cc(C)cc(NS(C)(=O)=O)c2F)n1` [Example 1AM, (S)-Methyl 1-(4-(5-(2-fluoro-5-methyl-3-(methylsulfonamido)phenyl)-2-(1-methylcyclopropyl)-1H-imidazol-4-yl)pyrimidin-2-ylamino)propan-2-ylcarbamate] here?
Its IC50 is 1 nM.

How did the IC50 turn out when `CCS(=O)(=O)Nc1cc(Cl)cc(-c2nc(C(C)(C)C)[nH]c2-c2ccnc(NC[C@H](C)NC(=O)OC)n2)c1F` [Example 1AJ, (S)-Methyl 1-(4-(2-tert-butyl-4-(5-chloro-3-(ethylsulfonamido)-2-fluorophenyl)-1H-imidazol-5-yl)pyrimidin-2-ylamino)propan-2-ylcarbamate] was run?
The IC50 was 0.46 nM.

`CC(C)(C)c1nc(-c2cc(Cl)cc(NS(=O)(=O)c3c(F)cccc3F)c2F)c(-c2ccnc(N)n2)[nH]1` [Example 1BE, N-(3-(5-(2-Aminopyrimidin-4-yl)-2-tert-butyl-1H-imidazol-4-yl)-5-chloro-2-fluorophenyl)-2,6-difluorobenzenesulfonamide] was tested. Which IC50 did it give?
The IC50 was 0.13 nM.

For `CC(C)(C)c1nc(-c2cccc(NS(C)(=O)=O)c2Cl)c(-c2ccnc(N)n2)[nH]1` [Example 1BL, N-(3-(5-(2-Aminopyrimidin-4-yl)-2-tert-butyl-1H-imidazol-4-yl)-2-chlorophenyl)methanesulfonamide], which IC50 is on record?
Its IC50 is 55 nM.

For `COC(=O)N[C@@H](C)CNc1nccc(-c2[nH]c(C3CC3)nc2-c2cc(Cl)cc(NS(C)(=O)=O)c2)n1` [Example 1S, (S)-Methyl 1-(4-(4-(3-chloro-5-(methylsulfonamido)phenyl)-2-cyclopropyl-1H-imidazol-5-yl)pyrimidin-2-ylamino)propan-2-ylcarbamate], which IC50 is on record?
Its IC50 is 0.48 nM.

`COC(=O)N[C@@H](C)CNc1nccc(-c2[nH]c(C(C)(C)C)nc2-c2cc(NS(=O)(=O)C3CC3)c(C)c(OC)c2)n1` [Example 1L, (S)-Methyl 1-(4-(2-tert-butyl-4-(3-(cyclopropanesulfonamido)-5-methoxy-4-methylphenyl)-1H-imidazol-5-yl)pyrimidin-2-ylamino)propan-2-ylcarbamate] was tested. Which IC50 did it give?
The IC50 was 157 nM.
